What was measured:
[1] = test system: A375, SW620, LOVO and HCT116 xenografts; experiment: Tumor xenografts in nude mice, tumor growth; format: in vivo; details: single administration
Method: Six-week-old female athymic NU/NU nude mice were injected subcutaneously with 5×10^5 of A375, SW620, LOVO, and HCT116 in […] culture media/Matrigel at a 1:5 ratio. For cell-line-derived xenografts, animals were randomized at a tumor volume of 70 to 120 mm^3 to four to six groups, with n=8-10 tumors per group. […] Xenografts were measured with digital caliper, and tumor volumes were determined with the formula: […]. Animals were euthanized using CO2 inhalation. Tumor volumes are plotted as means±SEM. Mice were housed in air-filtered laminar flow cabinets with a 12-hr light/dark cycle and food and water ad libitum. […]

[2] = test system: B16F10 melanoma lung metastases
Method: A luciferase-expressing B16F10 melanoma lung metastasis model was used. The cells were injected into the tail vein at day 0. The FiDOX particles and controls were injected at day 7. The progression of metastasis was monitored with bioluminescence imaging after injection of luciferin. The bioluminescence images show the luciferase-expressing B16F10 cancer cells after injection of D-luciferin, 21 days after inoculation and 14 days after a single treatment.
FIG. 8 is a plot showing laboratory mouse survival curve data in the B16F10 melanoma lung metastasis model treated with a single injection of FiDOX nanoparticles, injected on day 7.
C57BL/6 mice were inoculated intravenously (i.v.) with 1×10^5B16-F10 cells on day 0 and the tumor was allowed to establish until day 7. In one experiment, mice were divided randomly into 5 groups and injected i.v. with FiDOX, Fi, DexDOX.
After treatment, mice were monitored up to 8 or 17 weeks, depending on the treatment received. At the end of the experiments, mice were sacrificed, their lungs were collected, and the number of surface-visible tumors was examined. The Kaplan-Meier method was used to evaluate survival.
The anti-tumor efficacy of P-selectin-targeted drug carrier nanoparticles was assessed against an aggressive experimental metastasis model. […]

| SMILES | tumor growth inhibition [1] | survival ([2]; single injection on day 7) | tumor burden ([2]; single injection, bioluminescence) |
| --- | --- | --- | --- |
| Cn1cnc2c(F)c(Nc3ccc(Br)cc3F)c(C(=O)NOCCO)cc21 [MEK162, 6-(4-bromo-2-fluoroanilino)-7-fluoro-N-(2-hydroxyethoxy)-3-methylbenzimidazole-5-carboxamide] | no effect | – | – |
| COc1cccc2c1C(=O)c1c(O)c3c(c(O)c1C2=O)C[C@@](O)(C(=O)CO)C[C@@H]3O[C@H]1C[C@H](N)[C@H](O)[C@H](C)O1 [doxorubicin, (7S,9S)-7-[(2R,4S,5S,6S)-4-amino-5-hydroxy-6-methyloxan-2-yl]oxy-6,9,11-trihydroxy-9-(2-hydroxyacetyl)-4-methoxy-8,10-dihydro-7H-tetracene-5,12-dione] | – | did not have a significant effect | did not have a significant effect |

Reference: patent US10478506B2, “Fucoidan nanogels and methods of their use and manufacture” (Memorial Sloan Kettering Cancer Center, priority 2014, dated 2019)
